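Exposure lasted 48 hours, with cells grown in 96-well plates and compounds tested at five concentrations. GI50: concentration for 50% inhibition of growth.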 Active and inactive are the calls of the source. Rule as the data show it: active = GI50 up to about 1.1 µM and inactive = higher.
How the values were obtained:
Assay in all cases: DTP human tumour cell line panel, 48 h
[1] = system: A549
[2] = system: CAKI-1
[3] = system: CCRF-CEM
[4] = system: COLO 205
[5] = system: HL-60
[6] = system: K562
[7] = system: M14
[8] = system: MCF7
[9] = system: NCI-H226
[10] = system: OVCAR-3
[11] = system: OVCAR-4
[12] = system: OVCAR-8
[13] = system: SF-295
[14] = system: SK-MEL-28
[15] = system: SNB-75
[16] = system: TK-10
[17] = system: U-251
[18] = system: UACC-62
[19] = system: HCC 2998
[20] = system: HOP-92

Measured: GI50

O=C(O)Cc1ccc([N+](=O)[O-])cc1[N+](=O)[O-]
inactive: [1] > 100 µM | [2] > 100 µM | [3] > 100 µM | [4] > 100 µM | [5] > 100 µM | [6] > 100 µM | [7] > 100 µM | [8] > 100 µM | [9] > 100 µM | [10] > 100 µM | [11] > 100 µM | [12] > 100 µM | [13] > 100 µM | [14] > 100 µM | [15] > 100 µM | [16] > 100 µM | [17] > 100 µM | [18] > 100 µM

COc1cc(C(=O)/C=C/c2ccc(OCC#N)cc2)cc(OC)c1OC
inactive: [1] 21.4 µM | [2] 26.1 µM | [3] 19.4 µM | [4] 20 µM | [19] 16.5 µM | [20] 17 µM | [6] 24.5 µM | [7] > 10 µM | [8] 9.02 µM | [9] 23.2 µM | [10] 22.2 µM | [11] 37.4 µM | [12] 29.5 µM | [13] 46.2 µM | [14] 17.3 µM | [15] > 10 µM | [16] 25.1 µM | [17] 18 µM | [18] 21.2 µM

COc1cc2c(cc1OC)CCc1cc(OC)c(OC)cc1CC2
inactive: [1] > 100 µM | [2] > 100 µM | [3] > 100 µM | [4] > 100 µM | [19] > 100 µM | [20] > 100 µM | [6] > 100 µM | [7] > 100 µM | [8] > 100 µM | [9] > 100 µM | [10] > 100 µM | [11] > 100 µM | [12] > 100 µM | [13] > 100 µM | [14] > 100 µM | [15] > 100 µM | [16] > 100 µM | [17] > 100 µM | [18] > 100 µM

CN1N(c2ccccc2)C(=O)C2=NC=C(C#N)C(=N)C21C (stereo unspecified)
inactive: [1] > 100 µM | [2] > 100 µM | [3] > 100 µM | [4] > 100 µM | [19] > 100 µM | [20] > 100 µM | [6] > 100 µM | [7] > 100 µM | [8] > 100 µM | [9] > 100 µM | [10] > 100 µM | [11] > 100 µM | [12] > 100 µM | [13] > 100 µM | [14] > 100 µM | [15] > 100 µM | [16] > 100 µM | [17] > 100 µM | [18] > 100 µM

N#Cc1c(NC(=S)Nc2ccccc2)sc2c1CCCC2
inactive: [2] > 100 µM | [4] > 100 µM | [19] > 100 µM | [5] > 100 µM | [6] > 100 µM | [8] > 100 µM | [9] > 100 µM | [10] > 100 µM | [11] > 100 µM | [12] > 100 µM | [13] > 100 µM | [14] > 100 µM | [15] > 100 µM | [16] > 100 µM | [17] > 100 µM | [18] 94.2 µM

COc1ccc(C(=O)/C=C/c2ccc(OCCCCCCCCCCOc3ccc(/C=C/C(=O)c4ccc(OC)cc4)cc3)cc2)cc1
inactive: [1] > 100 µM | [2] > 100 µM | [3] > 100 µM | [4] > 100 µM | [19] > 100 µM | [5] > 100 µM | [6] > 100 µM | [7] > 100 µM | [8] > 100 µM | [9] > 100 µM | [11] > 100 µM | [12] > 100 µM | [13] > 100 µM | [14] > 100 µM | [15] 69.7 µM | [16] > 100 µM | [17] > 100 µM | [18] > 100 µM

COc1cccc(CC(C)NCC(O)c2ccc(O)c(O)c2)c1 (stereo unspecified)
inactive: [1] 57 µM | [2] 35 µM | [3] 21 µM | [4] 19 µM | [20] 6.59 µM | [6] 94.4 µM | [7] 38 µM | [8] 41.8 µM | [9] 24.8 µM | [10] 26.6 µM | [11] 18.5 µM | [12] 18.7 µM | [13] > 100 µM | [14] 52.1 µM | [15] 19 µM | [16] 25.6 µM | [17] 45.6 µM | [18] 37.5 µM

O=c1[nH]nc(-c2ccccc2)n1/N=C/c1ccccc1O
inactive: [1] > 100 µM | [2] > 100 µM | [4] > 100 µM | [19] > 100 µM | [20] 67.3 µM | [6] > 100 µM | [8] > 100 µM | [9] > 100 µM | [10] 59.4 µM | [11] 28.6 µM | [12] 47.6 µM | [13] 71 µM | [16] > 100 µM | [17] 41.6 µM | [18] 81.1 µM

FC(F)(F)c1ccc(C2=N/S(c3ccccc3)=N\C(c3ccc(C(F)(F)F)cc3)=N/S(c3ccccc3)=N\2)cc1 (stereo unspecified)
inactive: [1] > 100 µM | [2] > 100 µM | [3] > 100 µM | [4] > 100 µM | [19] > 100 µM | [20] > 100 µM | [6] > 100 µM | [7] > 100 µM | [8] > 100 µM | [10] > 100 µM | [11] > 100 µM | [12] > 100 µM | [13] > 100 µM | [14] > 100 µM | [15] > 100 µM | [16] > 100 µM | [17] > 100 µM | [18] > 100 µM

COc1ccc(CNC(=O)[C@H](Cc2ccc(O)cn2)NC(C)=O)cc1
inactive: [1] > 100 µM | [2] > 100 µM | [3] > 100 µM | [4] > 100 µM | [19] > 100 µM | [5] > 100 µM | [6] > 100 µM | [7] > 100 µM | [8] > 100 µM | [9] > 100 µM | [10] > 100 µM | [11] > 100 µM | [13] > 100 µM | [14] > 100 µM | [16] > 100 µM | [17] > 100 µM | [18] > 100 µM

O=C(CCCCCCCCC(=O)OCC1OC(n2cnc3c(=O)[nH]cnc32)C(O)C1O)OCC1OC(n2cnc3c(=O)[nH]cnc32)C(O)C1O (stereo unspecified)
inactive: [1] > 100 µM | [2] > 100 µM | [3] > 100 µM | [4] > 100 µM | [19] > 100 µM | [5] > 100 µM | [20] > 100 µM | [6] > 100 µM | [7] > 100 µM | [9] > 100 µM | [10] > 100 µM | [11] > 100 µM | [12] > 100 µM | [13] > 100 µM | [14] > 100 µM | [15] > 100 µM | [16] > 100 µM | [17] > 100 µM | [18] > 100 µM

COc1cc2c(cc1O)NC(=O)[C@@H]1CCCN1C2=O
inactive: [1] > 100 µM | [2] > 100 µM | [3] > 100 µM | [4] > 100 µM | [19] > 100 µM | [20] > 100 µM | [6] > 100 µM | [7] > 100 µM | [8] > 100 µM | [9] > 100 µM | [10] > 100 µM | [11] > 100 µM | [12] > 100 µM | [13] > 100 µM | [14] > 100 µM | [15] > 100 µM | [16] > 100 µM | [17] > 100 µM | [18] > 100 µM

Nc1nncc2c1c(Br)cn2C1OC(CO)C(O)C1O (stereo unspecified)
inactive: [1] 31.7 µM | [2] 3.21 µM | [3] 2.33 µM | [4] 48.6 µM | [19] 5.27 µM | [5] 3.73 µM | [20] 8.63 µM | [6] 5.73 µM | [7] 23.9 µM | [9] > 100 µM | [10] 6.62 µM | [11] > 52.7 µM | [12] 1.49 µM | [13] 39.6 µM | [14] > 100 µM | [15] 13.7 µM | [16] 51.4 µM | [17] > 70.6 µM | [18] 56.9 µM

Oc1cc(O)cc(-c2nc3cc(F)ccc3s2)c1
inactive: [1] 26.1 µM | [2] 25.5 µM | [3] 27.5 µM | [4] 21 µM | [7] 19.4 µM | [8] 20.3 µM | [9] 25.8 µM | [10] 22.6 µM | [11] 18.5 µM | [12] 22.6 µM | [13] 17.8 µM | [14] 48.8 µM | [16] 30.3 µM | [17] 22.8 µM | [18] 21.1 µM

C=CCn1c(-c2ccc(/N=N/Nc3ccc(-c4n[nH]c(=S)n4CC=C)cc3)cc2)n[nH]c1=S
inactive: [1] 3.52 µM | [2] 4.57 µM | [3] 3.13 µM | [4] 2.94 µM | [20] 7.31 µM | [6] 2.12 µM | [7] 3.03 µM | [8] 3.69 µM | [9] 2.32 µM | [10] 2.52 µM | [11] 2.53 µM | [12] 2.8 µM | [13] 3.39 µM | [14] 6.9 µM | [15] 3.93 µM | [16] 11.8 µM | [17] 4.36 µM
